What was measured:
SIRT1 [1] = biological target: T1, SIRT1 (Homo sapiens, UniProt Q96EB6); assay: Trp mass spectrometry assay of SIRT1 activity; assay type: biochemical; settings: for Emax: read-out: Trp % Fold Act
T1 sequence (Q96EB6 1-747): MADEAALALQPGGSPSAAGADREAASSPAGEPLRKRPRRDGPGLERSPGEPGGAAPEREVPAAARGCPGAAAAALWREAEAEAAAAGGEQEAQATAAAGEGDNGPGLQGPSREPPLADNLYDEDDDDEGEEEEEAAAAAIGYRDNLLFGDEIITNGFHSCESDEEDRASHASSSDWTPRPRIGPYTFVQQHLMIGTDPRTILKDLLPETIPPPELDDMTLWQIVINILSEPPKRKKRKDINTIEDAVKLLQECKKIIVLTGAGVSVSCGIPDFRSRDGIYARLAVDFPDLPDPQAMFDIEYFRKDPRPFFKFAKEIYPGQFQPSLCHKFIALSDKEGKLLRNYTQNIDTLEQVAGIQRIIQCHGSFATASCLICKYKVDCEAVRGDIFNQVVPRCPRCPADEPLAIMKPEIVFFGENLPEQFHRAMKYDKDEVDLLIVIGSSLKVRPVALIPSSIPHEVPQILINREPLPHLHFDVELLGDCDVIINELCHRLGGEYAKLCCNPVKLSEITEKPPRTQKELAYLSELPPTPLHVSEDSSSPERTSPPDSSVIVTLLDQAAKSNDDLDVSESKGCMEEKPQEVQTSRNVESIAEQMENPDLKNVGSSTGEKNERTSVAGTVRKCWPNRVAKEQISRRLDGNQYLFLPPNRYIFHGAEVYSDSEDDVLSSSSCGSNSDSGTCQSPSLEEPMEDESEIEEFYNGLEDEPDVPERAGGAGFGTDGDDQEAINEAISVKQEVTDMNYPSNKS
In short: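 Activation readout: EC1.5 (concentration raising activity 50% over control) and percent maximum activation, from mass-spec quantitation of OAADPR or deacetylated Trp peptide. Reaction: 0.5 μM acetylated Trp peptide, 120 μM βNAD+, 10 nM bacterially expressed N-His SIRT1, pH 7.5 HEPES buffer with […], 25 min at 25° C.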

SIRT1 [2] = biological target: T1, SIRT1; assay: TAMRA based mass spectrometry assay of SIRT1 activity; assay type: biochemical; settings: for Emax: read-out: TAMRA % Fold Act
In short: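 Deacetylation of a biotinylated, TAMRA-tagged p53-based peptide (0.5 μM) by 10 nM His-tagged SIRT1 with 120 μM βNAD+, 25 °C for 25 min, pH 8 Tris-acetate buffer, across a compound concentration range. Quenched by formic acid and read by mass spec as product peptide or OAADPR; activity relative to DMSO reactions, nicotinamide defining maximal inhibition.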

[3] = concentration of test compound giving 150% activation of SIRT1, Trp peptide substrate
[4] = percent maximum fold activation of SIRT1, Trp peptide substrate
[5] = concentration of test compound giving 150% activation of SIRT1, TAMRA peptide substrate
[6] = percent maximum fold activation of SIRT1, TAMRA peptide substrate
[7] = Trp peptide substrate, concentration giving 150% activation of SIRT1
[8] = Trp peptide substrate, percent maximum fold activation
[9] = TAMRA peptide substrate, concentration giving 150% activation of SIRT1
[10] = TAMRA peptide substrate, percent maximum fold activation
[11] = Trp assay, concentration giving 150% activation of SIRT1
[12] = Trp assay, percent maximum fold activation
[13] = TAMRA assay, concentration giving 150% activation of SIRT1
[14] = TAMRA assay, percent maximum fold activation

SMILES	Trp EC1.5 (μM) (SIRT1 [1]; [11])	Emax (SIRT1 [1]; [12]) [%]	TAMRA EC1.5 (μM) (SIRT1 [2]; [13])	Emax (SIRT1 [2]; [14]) [%]	other results
O=C(Nc1ccnc(OCC(O)CO)n1)c1cnc2ccc(-c3ccccc3C(F)(F)F)nn12 (centres unmarked) [Compound 74]	–	–	–	–	Trp EC1.5 (μM) (SIRT1 [1]; [3]): A (EC1.5<1 μM); Emax (SIRT1 [1]; [4]): ≥ 350%; TAMRA EC1.5 (μM) (SIRT1 [2]; [5]): A (EC1.5<1 μM); Emax (SIRT1 [2]; [6]): ≥ 350%
Cc1cnc(NC(=O)c2cnn3ccc(-c4ccccc4C(F)(F)F)nc23)s1 [Compound 507]	–	–	–	–	Trp EC1.5 (SIRT1 [1]; [7]): B (EC1.5 1-25 μM); Emax (SIRT1 [1]; [8]): < 350%; TAMRA EC1.5 (SIRT1 [2]; [9]): A (EC1.5<1 μM); Emax (SIRT1 [2]; [10]): ≥ 350%
O=C(Nc1cnccc1N1CCOCC1)c1cnc2ccc(-c3ccccc3C(F)(F)F)nn12 [Compound 177]	–	–	–	–	Trp EC1.5 (μM) (SIRT1 [1]; [3]): C (EC1.5>25 μM); Emax (SIRT1 [1]; [4]): < 350%; TAMRA EC1.5 (μM) (SIRT1 [2]; [5]): C (EC1.5>25 μM); Emax (SIRT1 [2]; [6]): < 350%
O=C(Nc1ccc(F)cn1)c1cnc2ccc(-c3ccccc3OC[C@H](O)CO)nn12 [Compound 814]	B (EC1.5 1-25 μM)	< 350	B (EC1.5 1-25 μM)	≥ 350	–
O=C(Nc1cnc2ccc(-c3ccccc3C(F)(F)F)nn12)c1cccnc1 [Compound 86]	–	–	–	–	Trp EC1.5 (μM) (SIRT1 [1]; [3]): C (EC1.5>25 μM); Emax (SIRT1 [1]; [4]): < 350%; TAMRA EC1.5 (μM) (SIRT1 [2]; [5]): C (EC1.5>25 μM); Emax (SIRT1 [2]; [6]): < 350%
Cc1cc(OCC(O)CO)nc(NC(=O)c2cnc3ccc(-c4ccccc4Cl)nn23)n1 (centres unmarked) [Compound 285]	B (EC1.5 1-25 μM)	< 350	B (EC1.5 1-25 μM)	< 350	–
O=C(Nc1cccnn1)c1cnc2ccc(-c3ccccc3OC(F)(F)F)nn12 [Compound 395]	A (EC1.5<1 μM)	≥ 350	A (EC1.5<1 μM)	≥ 350	–
Cc1nc2c(C)cc(-c3ccccc3C(F)(F)F)nn2c1C(=O)NCc1ccccn1 [Compound 561]	–	–	–	–	Trp EC1.5 (SIRT1 [1]; [7]): B (EC1.5 1-25 μM); Emax (SIRT1 [1]; [8]): ≥ 350%; TAMRA EC1.5 (SIRT1 [2]; [9]): B (EC1.5 1-25 μM); Emax (SIRT1 [2]; [10]): < 350%
COCCOc1nccc(NC(=O)c2cnc3c(C)cc(-c4ccccc4C(F)(F)F)nn23)n1 [Compound 627]	A (EC1.5<1 μM)	≥ 350	A (EC1.5<1 μM)	≥ 350	–
Cc1cc(C)nc(NC(=O)c2cnc3c(C)c(C)c(-c4ccccc4Cl)nn23)c1 [Compound 230]	C (EC1.5>25 μM)	< 350	A (EC1.5<1 μM)	≥ 350	–
O=C(Nc1ccccn1)c1cnc2ccc(-c3c(F)cccc3F)nn12 [Compound 167]	–	–	–	–	Trp EC1.5 (μM) (SIRT1 [1]; [3]): C (EC1.5>25 μM); Emax (SIRT1 [1]; [4]): < 350%; TAMRA EC1.5 (μM) (SIRT1 [2]; [5]): C (EC1.5>25 μM); Emax (SIRT1 [2]; [6]): < 350%
Cc1cc(-c2ccccc2C(F)(F)F)nn2c(NC(=O)c3ccccn3)cnc12 [Compound 407, N-(8-methyl-6-(2-(trifluoromethyl)phenyl)imidazo[1,2-b]pyridazin-3-yl)picolinamide]	–	–	–	–	Trp EC1.5 (SIRT1 [1]; [7]): B (EC1.5 1-25 μM); Emax (SIRT1 [1]; [8]): ≥ 350%; TAMRA EC1.5 (SIRT1 [2]; [9]): A (EC1.5<1 μM); Emax (SIRT1 [2]; [10]): ≥ 350%
O=C(Nc1cnc2ccc(-c3ccccc3OC(F)(F)F)nn12)c1cccc(OCC(O)CO)n1 (centres unmarked) [Compound 323]	A (EC1.5<1 μM)	≥ 350	A (EC1.5<1 μM)	≥ 350	–
Cc1cc(C)nc(NC(=O)c2cnc3c(C)cc(-c4ccccc4C(F)(F)F)nn23)c1 [Compound 516]	–	–	–	–	Trp EC1.5 (SIRT1 [1]; [7]): B (EC1.5 1-25 μM); Emax (SIRT1 [1]; [8]): < 350%; TAMRA EC1.5 (SIRT1 [2]; [9]): A (EC1.5<1 μM); Emax (SIRT1 [2]; [10]): ≥ 350%
Cc1nc(C(=O)Nc2cnc3ccc(-c4ccccc4Cl)nn23)c(C)s1 [Compound 293]	C (EC1.5>25 μM)	< 350	A (EC1.5<1 μM)	≥ 350	–
O=C(Nc1cnc2ccc(-c3ccccc3Cl)nn12)c1cccc(OCC(O)CO)n1 (centres unmarked) [Compound 309]	A (EC1.5<1 μM)	< 350	A (EC1.5<1 μM)	≥ 350	–

SMILES	Trp EC1.5 (μM) (SIRT1 [1]; [11])	Emax (SIRT1 [1]; [12]) [%]	TAMRA EC1.5 (μM) (SIRT1 [2]; [13])	Emax (SIRT1 [2]; [14]) [%]	other results
COc1cccc(NC(=O)c2c(C)nn3ccc(-c4ccccc4C(F)(F)F)nc23)n1 [Compound 551, N-(6-methoxypyridin-2-yl)-2-methyl-5-(2-(trifluoromethyl)phenyl)pyrazolo[1,5-a]pyrimidine-3-carboxamide]	–	–	–	–	Trp EC1.5 (SIRT1 [1]; [7]): A (EC1.5<1 μM); Emax (SIRT1 [1]; [8]): ≥ 350%; TAMRA EC1.5 (SIRT1 [2]; [9]): A (EC1.5<1 μM); Emax (SIRT1 [2]; [10]): ≥ 350%
Cc1cc(NC(=O)c2cnn3ccc(-c4ccccc4OC(F)(F)F)nc23)ccn1 [Compound 612]	A (EC1.5<1 μM)	≥ 350	A (EC1.5<1 μM)	≥ 350	–
Cc1nc2ccc(-c3ccccc3C(F)(F)F)nn2c1NC(=O)c1cccc(N2CCC2)n1 [Compound 383]	B (EC1.5 1-25 μM)	≥ 350	A (EC1.5<1 μM)	≥ 350	–
Cc1csc(NC(=O)c2c(C)nn3ccc(-c4ccccc4C(F)(F)F)nc23)n1 [Compound 650]	A (EC1.5<1 μM)	≥ 350	A (EC1.5<1 μM)	≥ 350	–
Cc1cc(C)nc(NC(=O)c2c(C)nc3ccc(-c4cccc(OC[C@H](O)CO)c4)nn23)c1 [Compound 791]	B (EC1.5 1-25 μM)	< 350	A (EC1.5<1 μM)	≥ 350	–
O=C(Nc1cccnn1)c1cnn2ccc(-c3ccccc3OC(F)(F)F)nc12 [Compound 624]	A (EC1.5<1 μM)	≥ 350	A (EC1.5<1 μM)	≥ 350	–
Cc1nn2ccc(-c3ccccc3C(F)(F)F)nc2c1C(=O)Nc1ncc(F)cc1F [Compound 788]	B (EC1.5 1-25 μM)	≥ 350	B (EC1.5 1-25 μM)	≥ 350	–
Cc1ncccc1NC(=O)c1cnn2ccc(-c3ccccc3C(F)(F)F)nc12 [Compound 630]	A (EC1.5<1 μM)	≥ 350	B (EC1.5 1-25 μM)	< 350	–
O=C(Nc1ccncc1F)c1cnn2ccc(-c3ccccc3OC(F)(F)F)nc12 [Compound 606]	A (EC1.5<1 μM)	< 350	A (EC1.5<1 μM)	≥ 350	–
Cc1ccnc(NC(=O)c2cnn3ccc(-c4ccccc4OC(F)(F)F)nc23)c1 [Compound 604]	B (EC1.5 1-25 μM)	< 350	A (EC1.5<1 μM)	≥ 350	–
O=C(Nc1cnn2ccc(-c3ccccc3C(F)(F)F)nc12)c1cccc(-n2cnnc2)n1 [Compound 748]	B (EC1.5 1-25 μM)	< 350	A (EC1.5<1 μM)	≥ 350	–
Cc1cc2ncc(C(=O)Nc3ccncc3)n2nc1-c1ccccc1C(F)(F)F [Compound 223, 7-methyl-N-(pyridin-4-yl)-6-(2-(trifluoromethyl)phenyl)imidazo[1,2-b]pyridazine-3-carboxamide]	B (EC1.5 1-25 μM)	≥ 350	B (EC1.5 1-25 μM)	≥ 350	–
O=C(Nc1ccncn1)c1cnc2ccc(-c3ccccc3OC(F)(F)F)nn12 [Compound 358]	B (EC1.5 1-25 μM)	≥ 350	A (EC1.5<1 μM)	≥ 350	–
O=C(Nc1cnc2ccc(-c3ccccc3C(F)(F)F)nn12)c1ccnc(CN2CCCC2)c1 [Compound 214]	C (EC1.5>25 μM)	< 350	C (EC1.5>25 μM)	< 350	–
Cc1cc(-c2ccccc2C(F)(F)F)nn2c(C(=O)Nc3ccc(F)cn3)cnc12 [Compound 542]	–	–	–	–	Trp EC1.5 (SIRT1 [1]; [7]): B (EC1.5 1-25 μM); Emax (SIRT1 [1]; [8]): < 350%; TAMRA EC1.5 (SIRT1 [2]; [9]): A (EC1.5<1 μM); Emax (SIRT1 [2]; [10]): ≥ 350%
Cc1nc(NC(=O)c2c(C)nc3c(C)cc(-c4ccccc4C(F)(F)F)nn23)sc1C [Compound 457]	–	–	–	–	Trp EC1.5 (SIRT1 [1]; [7]): A (EC1.5<1 μM); Emax (SIRT1 [1]; [8]): < 350%; TAMRA EC1.5 (SIRT1 [2]; [9]): A (EC1.5<1 μM); Emax (SIRT1 [2]; [10]): ≥ 350%
